This is an account of results in patent US10130684B2, “Oral dissolving films for insulin administration, for treating diabetes” (PHARMEDICA LTD., priority 2011, dated 2018).

This data set deals with cultured human buccal tissue (EpiOral). In words: In vitro buccal tissue permeation of insulin solutions with permeation enhancers. It is filed as in vitro ADME. The text has this: To enable in vitro study of insulin release, the films were applied onto EpiOral tissues (MatTek) according to the Drug Absorption Protocol (ORL-202 & ORL-606), incorporated herein by reference. EpiOral tissues consist of normal, human-derived epithelial cells, which have been cultured to form multilayered, highly differentiated models of the human buccal phenotypes. EpiOral is a multilayered tissue consisting of an organized basal layer and multiple non-cornified layers analog to native human buccal tissue.
Insulin solution (0.60 mg/mL) was prepared in phosphate buffer (pH 6.8) solution (PBS). The above mentioned potential permeation enhancers were dissolved in the insulin solution to make solutions with desired ratios given in the table below:
Briefly, experiments were conducted in 37° C. incubator with 0.9 mL of PBS in receptor. 3.5 mL of donor solutions (n=4 for each formulation) were placed in the donor compartments. […] were collected from the receptor at time periods of 0.5, 1.0, 2.0, 3.0, 4.0 and 6.0 h, and were later assayed using HPLC.

As to “polyoxyethylene (35) lauryl ether [Brij 35]”, where the note is “Brij 35 as permeation enhancer”, the “increase of insulin release compared to the control (without a permeation enhancer)” value is on record as “about 5 times”. For the same substance, the “permeation effectiveness for insulin among the 3 tested compounds” value (Brij 58, Brij 35, sodium glycocholate compared) is “highest permeation effectiveness”.
